# From US20250019387A1 (Frontier Medicines Corporation, priority 0001, published 2025)
# Biological target: KRAS G12C and cRAF (Ras-binding domain) interaction (Homo sapiens (Human), UniProt P01116, C118S/C51S/C80L/G12C)
# Test: Inhibition of KRAS G12C and cRAF binding (AlphaScreen)
# Conditions: GMPPNP-loaded KRAS G12C, 19-20 hours incubation with compound; read-out: IC50 (Inhibition of KRAS G12C and cRAF Binding)
# Procedure, shortened: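 Compounds (DMSO) preincubated 19-20 h at room temperature, then RBD with streptavidin donor and glutathione acceptor beads added in 25 mM Hepes pH 7.4, 150 mM NaCl, 5 mM MgCl2, 0.01% Triton X-100, 2% DMSO for 60-90 min. Emission 570 nm (excitation 680 nm); IC50 by 4-parameter fit. Counter-screen used biotin-AviTag-GST instead of RBD.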
# Chain of KRAS G12C and cRAF (Ras-binding domain) interaction (P01116 other isoform, or with tags, fused parts or gaps G12C/C51S/C80L/C118S): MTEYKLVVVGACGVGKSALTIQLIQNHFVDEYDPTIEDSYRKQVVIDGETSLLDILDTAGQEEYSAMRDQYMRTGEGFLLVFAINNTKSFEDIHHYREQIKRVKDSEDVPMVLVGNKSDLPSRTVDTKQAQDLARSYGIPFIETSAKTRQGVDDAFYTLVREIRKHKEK
row,SMILES,IC50 [nM]
1,"COC(=O)/C=C/C(=O)N1CC[C@H](N(C)c2nc(OC[C@@H]3CCCN3C)nc3c(F)c(-c4cccc5cccc(Cl)c45)ncc23)C1 [Example 26, methyl(E)-4-((S)-3-((7-(8-chloronaphthalen-1-yl)-8-fluoro-2-(((S)-1-methylpyrrolidin-2-yl)methoxy)pyrido[4,3-d]pyrimidin-4-yl)(methyl)amino)pyrrolidin-1-yl)-4-oxobut-2-enoate]",> 500
2,"CN(c1nc(OC[C@@]23CCCN2C[C@H](F)C3)nc2c1CCN(c1cccc3cccc(Cl)c13)C2)[C@@H]1CCN(C(=O)/C=C/c2cn(C)cn2)C1 [Example 110, (E)-1-((R)-3-((7-(8-chloronaphthalen-1-yl)-2-(((2R,7aS)-2-fluorohexahydro-1H-pyrrolizin-7a-yl)methoxy)-5,6,7,8-tetrahydropyrido[3,4-d]pyrimidin-4-yl)(methyl)amino)pyrrolidin-1-yl)-3-(1-methyl-1H-imidazol-4-yl)prop-2-en-1-one]",> 500
3,"Cc1nccc(/C=C/C(=O)N2CC[C@@H](N(C)c3nc(OC[C@@]45CCCN4C[C@H](F)C5)nc4c(F)c(-c5cccc6ccc(F)c(F)c56)ncc34)C2)n1 [Example 271, (E)-1-((R)-3-((7-(7,8-difluoronaphthalen-1-yl)-8-fluoro-2-(((2R,7aS)-2-fluorotetrahydro-1H-pyrrolizin-7a(5H)-yl)methoxy)pyrido[4,3-d]pyrimidin-4-yl)(methyl)amino)pyrrolidin-1-yl)-3-(2-methylpyrimidin-4-yl)prop-2-en-1-one]",10 to 100
4,"CN(c1nc(OCC23CCCN2CCC3)nc2c1CCN(c1cccc3cccc(Cl)c13)C2)[C@@H]1CCN(C(=O)/C=C/c2nc(C3COC3)no2)C1 [Example 156, (R,E)-1-(3-((7-(8-chloronaphthalen-1-yl)-2-((hexahydro-1H-pyrrolizin-7a-yl)methoxy)-5,6,7,8-tetrahydropyrido[3,4-d]pyrimidin-4-yl)(methyl)amino)pyrrolidin-1-yl)-3-(3-(oxetan-3-yl)-1,2,4-oxadiazol-5-yl)prop-2-en-1-one]",10 to 100
5,"COC(=O)/C=C/C(=O)N1CCC(N(C)c2nc(OC[C@@H]3CCCN3C)nc3c2CCN(c2cccc4cccc(Cl)c24)C3)C1 (stereo partly drawn) [Example 6, methyl(E)-4-(3-((7-(8-chloronaphthalen-1-yl)-2-(((S)-1-methylpyrrolidin-2-yl)methoxy)-5,6,7,8-tetrahydropyrido[3,4-d]pyrimidin-4-yl)(methyl)amino)pyrrolidin-1-yl)-4-oxobut-2-enoate]",10 to 100
6,"CC(C)OC(=O)/C=C/C(=O)N1CC[C@@H](N(C)c2nc(OC[C@@H]3CCCN3C)nc3c2CCN(c2cccc4cccc(Cl)c24)C3)C1 [Example 11, isopropyl(E)-4-((R)-3-((7-(8-chloronaphthalen-1-yl)-2-(((S)-1-methylpyrrolidin-2-yl)methoxy)-5,6,7,8-tetrahydropyrido[3,4-d]pyrimidin-4-yl)(methyl)amino)pyrrolidin-1-yl)-4-oxobut-2-enoate]",10 to 100
7,"COC(=O)/C=C/C(=O)NC1CCN(c2nc(OC[C@@H]3CCCN3C)nc3c2CCN(c2cccc4cccc(Cl)c24)C3)C1 (stereo partly drawn) [Example 14, methyl(E)-4-((1-(7-(8-chloronaphthalen-1-yl)-2-(((S)-1-methylpyrrolidin-2-yl)methoxy)-5,6,7,8-tetrahydropyrido[3,4-d]pyrimidin-4-yl)pyrrolidin-3-yl)amino)-4-oxobut-2-enoate]",> 500
8,"CN(c1nc(OC[C@@]23CCCN2C[C@H](F)C3)nc2c(F)c(-c3cccc4cccc(Cl)c34)ncc12)[C@@H]1CCN(C(=O)/C=C/c2nc(C(F)F)no2)C1 [Example 157, (E)-1-((R)-3-((7-(8-chloronaphthalen-1-yl)-8-fluoro-2-(((2R,7aS)-2-fluorotetrahydro-1H-pyrrolizin-7a(5H)-yl)methoxy)pyrido[4,3-d]pyrimidin-4-yl)(methyl)amino)pyrrolidin-1-yl)-3-(3-(difluoromethyl)-1,2,4-oxadiazol-5-yl)prop-2-en-1-one]",< 10
9,"CN(c1nc(OC[C@@]23CCCN2C[C@H](F)C3)nc2c(F)c(-c3cccc4cccc(Cl)c34)ncc12)[C@@H]1CCN(C(=O)/C=C/CN2CCOCC2)C1 [Example 90, (E)-1-((R)-3-((7-(8-chloronaphthalen-1-yl)-8-fluoro-2-(((2R,7aS)-2-fluorohexahydro-1H-pyrrolizin-7a-yl)methoxy)pyrido[4,3-d]pyrimidin-4-yl)(methyl)amino)pyrrolidin-1-yl)-4-morpholinobut-2-en-1-one]",10 to 100
10,"CN(CC1CN(C(=O)C#CCN2CCOCC2)C1)c1nc(OC[C@@]23CCCN2C[C@H](F)C3)nc2c(F)c(-c3cccc4cccc(Cl)c34)ncc12 [Example 91, 1-(3-(((7-(8-chloronaphthalen-1-yl)-8-fluoro-2-(((2R,7aS)-2-fluorotetrahydro-1H-pyrrolizin-7a(5H)-yl)methoxy)pyrido[4,3-d]pyrimidin-4-yl)(methyl)amino)methyl)azetidin-1-yl)-4-morpholinobut-2-yn-1-one]",100 to 500
11,"CN1CCC[C@H]1COc1nc2c(c(N3CCC(CNC#N)CC3)n1)CCN(c1cccc3cccc(Cl)c13)C2 [Example 32, (S)-N-((1-(7-(8-chloronaphthalen-1-yl)-2-((1-methylpyrrolidin-2-yl)methoxy)-5,6,7,8-tetrahydropyrido[3,4-d]pyrimidin-4-yl)piperidin-4-yl)methyl)cyanamide]",> 500
12,"C#Cc1c(F)ccc2cccc(-c3ncc4c(N(C)[C@@H]5CCN(C(=O)C=C)C5)nc(OC[C@]56CCCN5C[C@H](F)C6)nc4c3F)c12 [Example 305, 1-((R)-3-((7-(8-ethynyl-7-fluoronaphthalen-1-yl)-8-fluoro-2-(((2R,7aR)-2-fluorotetrahydro-1H-pyrrolizin-7a(5H)-yl)methoxy)pyrido[4,3-d]pyrimidin-4-yl)(methyl)amino)pyrrolidin-1-yl)prop-2-en-1-one]",10 to 100
13,"CN(c1nc(OC[C@@]23CCCN2C[C@H](F)C3)nc2c(F)c(-c3cccc4cccc(Cl)c34)ncc12)[C@@H]1CN(C(=O)/C=C/c2nc(C(C)(C)O)no2)C[C@H]1F [Example 217, (E)-1-((3R,4R)-3-((7-(8-chloronaphthalen-1-yl)-8-fluoro-2-(((2R,7aS)-2-fluorotetrahydro-1H-pyrrolizin-7a(5H)-yl)methoxy)pyrido[4,3-d]pyrimidin-4-yl)(methyl)amino)-4-fluoropyrrolidin-1-yl)-3-(3-(2-hydroxypropan-2-yl)-1,2,4-oxadiazol-5-yl)prop-2-en-1-one]",> 500
14,"CN(c1nc(OC[C@@]23CCCN2C[C@H](F)C3)nc2c(F)c(-c3cccc4cccc(Cl)c34)ncc12)[C@@H]1CCN(C(=O)/C=C/c2ncncc2F)C1 [Example 230, (E)-1-((R)-3-((7-(8-chloronaphthalen-1-yl)-8-fluoro-2-(((2R,7aS)-2-fluorotetrahydro-1H-pyrrolizin-7a(5H)-yl)methoxy)pyrido[4,3-d]pyrimidin-4-yl)(methyl)amino)pyrrolidin-1-yl)-3-(5-fluoropyrimidin-4-yl)prop-2-en-1-one]",10 to 100
15,"CN1CC(=CC(=O)N2CC[C@@H](N(C)c3nc(OC[C@@]45CCCN4C[C@H](F)C5)nc4c(F)c(-c5cccc6ccc(F)c(Cl)c56)ncc34)C2)C1 [Example 300, 1-((R)-3-((7-(8-chloro-7-fluoronaphthalen-1-yl)-8-fluoro-2-(((2R,7aS)-2-fluorotetrahydro-1H-pyrrolizin-7a(5H)-yl)methoxy)pyrido[4,3-d]pyrimidin-4-yl)(methyl)amino)pyrrolidin-1-yl)-2-(1-methylazetidin-3-ylidene)ethan-1-one]",10 to 100
16,"C=CC(=O)CN(C)c1nc(OC[C@@H]2CCCN2C)nc2c1CCN(c1cccc3cccc(Cl)c13)C2 [Example 40, (S)-1-((7-(8-chloronaphthalen-1-yl)-2-((1-methylpyrrolidin-2-yl)methoxy)-5,6,7,8-tetrahydropyrido[3,4-d]pyrimidin-4-yl)(methyl)amino)but-3-en-2-one]",10 to 100

# Same assay, conditions: additional exemplary compounds; KRAS G12C and cRAF binding; read-out: RAF1 RBD IC50
row,SMILES,IC50 [nM]
1,N#CN1CC[C@H]2[C@H]1CCN2c1nc(OC[C@@]23CCCN2C[C@H](F)C3)nc2c(F)c(-c3cccc4cccc(Cl)c34)ncc12,100 to 500
2,C=CC(=O)N1CC(CN(C)c2nc(OCC34CCCN3CCC4)nc3c2CCN(c2cccc4cccc(Cl)c24)C3)C1,100 to 500
3,Cc1nccc(/C=C/C(=O)N2CCCN(c3nc(OC[C@@]45CCCN4C[C@H](F)C5)nc4c(F)c(-c5cccc6cccc(Cl)c56)ncc34)CC2)n1,> 500
4,CN(c1nc(OCC23CCCN2CCC3)nc2c(F)c(-c3cccc4cccc(Cl)c34)ncc12)[C@@H]1CCN(C(=O)/C=C/c2ncccn2)C1,> 500
5,C=CC(=O)CCNc1nc(OC[C@@H]2CCCN2C)nc2c1CCN(c1cccc3ccccc13)C2,> 500
6,CN1CCC[C@H]1COc1nc(N(C)[C@@H]2CCN(C#N)C2)c2cnc(-c3cccc4ccc(F)c(Cl)c34)c(F)c2n1,100 to 500
7,C=CC(=O)COc1nc(OC[C@@H]2CCCN2C)nc2c1CCN(c1cccc3ccccc13)C2,> 500
8,CC(C)c1noc(/C=C/C(=O)N2CCN(c3nc(OC[C@@]45CCCN4C[C@H](F)C5)nc4c3CCN(c3cccc5cccc(Cl)c35)C4)CC2)n1,> 500
9,CN(c1nc(OCC23CCCN2CCC3)nc2c(F)c(-c3cccc4cccc(Cl)c34)ncc12)[C@@H]1CCN(C(=O)/C=C/c2nnn(C)n2)C1,> 500
10,O=C(/C=C/CN1CCOCC1)N1C2CC1CN(c1nc(OC[C@@]34CCCN3C[C@H](F)C4)nc3c(F)c(-c4cccc5cccc(Cl)c45)ncc13)C2,> 500
11,C=CC(=O)N1CC[C@@H](Nc2nc(OC[C@@]34CCCN3C[C@H](F)C4)nc3c(F)c(-c4cccc5cccc(Cl)c45)ncc23)C1,> 500
12,C=CC(=O)CCOc1nc(OC[C@@H]2CCCN2C)nc2c1CCN(c1cccc3ccccc13)C2,> 500
13,C=CC(=O)N1CCCC1CN(C)c1nc(OC[C@@]23CCCN2C[C@H](F)C3)nc2c(F)c(-c3cccc4cccc(Cl)c34)ncc12 (some centres unmarked),> 500
